Laboratory results: patent publication US20230203043A1, “NOVEL IMIDAZOPYRAZINE DERIVATIVES” (Hoffmann-La Roche Inc., priority 2020, published 2023)
Counter-ions that a name gives are not always drawn.

Each compound was assayed on Acinetobacter baumannii ATCC17961 (assay: Antimicrobial susceptibility testing: 90% growth inhibitory concentration (IC90) determination in Iso-Sensitest broth, OD600 growth). Details: Acinetobacter baumannii, ATCC17961, 16 h, read-out: A. baumannii ATCC 17961 IC90 (uM), strain ATCC 17961, OD600 growth over 16 h.
Assay type: cell-based
Summary of the method: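 Serial twofold dilution, 10 points, e.g. 50–0.097 μM final; ~5×10^(5) CFU/ml; 35±2° C, 16 h; kinetic OD600 every 20 min; IC90 from log-phase inhibition.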

Structure (SMILES)	IC90 [µM]
C[C@@H](NC(=O)c1ccc(Nc2nccn3c(-c4c[nH]nc4C(F)(F)F)cnc23)cc1Cl)C(=O)N1CC(N)C1 [Example 99, N-[(2R)-1-(3-aminoazetidin-1-yl)-1-oxopropan-2-yl]-2-chloro-4-[[3-[3-(trifluoromethyl)-1H-pyrazol-4-yl]imidazo[1,2-a]pyrazin-8-yl]amino]benzamide formate]	2.08
CCc1cc(Nc2nccn3c(-c4c[nH]nc4C(F)(F)F)cnc23)ccc1C(=O)NCCNC(=O)[C@@H]1CC[C@@H](N)C1 [Example 586, N-[2-[[(1R,3R)-3-aminocyclo-pentanecarbonyl]amino]ethyl]-2-ethyl-4-[[3-[3-(trifluoromethyl)-1H-pyrazol-4-yl]imidazo[1,2-a]pyrazin-8-yl]amino]benzamide formate]	0.434
Cc1ccc(Cn2cc(-c3cnc4c(Nc5ccc(C(=O)N6CCNCC6)c(Cl)c5)nccn34)c(C(F)(F)F)n2)nn1 [Example 163, [2-chloro-4-[[3-[1-[(6-methylpyridazin-3-yl)methyl]-3-(trifluoromethyl)pyrazol-4-yl]imidazo[1,2-a]pyrazin-8-yl]amino]phenyl]-piperazin-1-ylmethanone formate]	1.27
CCc1cc(Nc2nccn3c(-c4c[nH]nc4C(F)(F)F)cnc23)ccc1C(=O)NCCNC(=O)CN [Example 691, N-(2-(2-aminoacetamido)ethyl)-2-ethyl-4-((3-(3-(trifluoromethyl)-1H-pyrazol-4-yl)imidazo [1,2-a]pyrazin-8-yl)amino)benzamide formate]	0.352
C=CCn1cc(-c2cnc3c(Nc4ccc(C(=O)NCCOCCN)c(CC)c4)nccn23)c(C(F)(F)F)n1 [Example 272, N-[2-(2-aminoethoxy)ethyl]-2-ethyl-4-[[3-[1-prop-2-enyl-3-(trifluoromethyl)pyrazol-4-yl]imidazo[1,2-a]pyrazin-8-yl]amino]benzamide formate]	0.085
O=C(NCCNC(=O)[C@@H]1C[C@@H](O)CN1)c1ccc(Nc2nccn3c(-c4c[nH]nc4C(F)(F)F)cnc23)cc1Cl [Example 433, (2S,4R)-N-[2-[[2-chloro-4-[[3-[3-(trifluoromethyl)-1H-pyrazol-4-yl]imidazo[1,2-a]pyrazin-8-yl]amino]benzoyl]amino]ethyl]-4-hydroxypyrrolidine-2-carboxamide formate]	2.66
Cc1cc(Nc2nccn3c(-c4cn(C)nc4C(F)(F)F)cnc23)ccc1C(=O)N1CCN(C(=O)[C@H]2CCNC[C@H]2O)CC1 [Example 475, formic acid; [4-[(3S,4S)-3-hydroxypiperidine-4-carbonyl]piperazin-1-yl]-[2-methyl-4-[[3-[1-methyl-3-(trifluoromethyl)pyrazol-4-yl]imidazo[1,2-a]pyrazin-8-yl]amino]phenyl]methanone]	1.64
CCc1cc(Nc2nccn3c(-c4cn(CC(F)F)nc4C(F)(F)F)cnc23)ccc1C(=O)NCCOCCCN [Example 618, N-(2-(3-aminopropoxy)ethyl)-4-((3-(1-(2,2-difluoroethyl)-3-(trifluoromethyl)-1H-pyrazol-4-yl)imidazo[1,2-a]pyrazin-8-yl)amino)-2-ethylbenzamide formate]	0.129
CCc1cc(Nc2nccn3c(-c4c[nH]nc4C(F)(F)F)cnc23)ccc1C(=O)NCCCNC(=O)CCN [Example 212, N-[3-(3-aminopropanoylamino)propyl]-2-ethyl-4-[[3-[3-(trifluoromethyl)-1H-pyrazol-4-yl]imidazo[1,2-a]pyrazin-8-yl]amino]benzamide formate]	0.296
CCc1cc(Nc2nccn3c(-c4cn(CC#N)nc4C(F)(F)F)cnc23)ccc1C(=O)NOCCN [Example 228, N-(2-aminoethoxy)-4-[[3-[1-(cyanomethyl)-3-(trifluoromethyl)pyrazol-4-yl]imidazo[1,2-a]pyrazin-8-yl]amino]-2-ethylbenzamide formate]	0.409
CCc1cc(Nc2nccn3c(-c4cn(CC#N)nc4C(F)(F)F)cnc23)ccc1C(=O)NCCOCCN [Example 29, N-[2-(2-aminoethoxy)ethyl]-4-[[3-[1-(cyanomethyl)-3-(trifluoromethyl)pyrazol-4-yl]imidazo[1,2-a]pyrazin-8-yl]amino]-2-ethylbenzamide formate]	0.107

Same assay, conditions: Acinetobacter baumannii, ATCC17961, 16 h, strain ATCC 17961, OD600 growth over 16 h, read-out: A. baumannii ATCC 17961 IC90

Structure (SMILES)	IC90 [µM]
O=C(NCC(=O)N1CCNCC1)c1ccc(Nc2nccn3c(-c4c[nH]nc4C(F)(F)F)cnc23)cc1Cl [Example 162, 2-chloro-N-(2-oxo-2-piperazin-1-ylethyl)-4-[[3-[3-(trifluoromethyl)-1H-pyrazol-4-yl]imidazo[1,2-a]pyrazin-8-yl]amino]benzamide]	1.22
CCc1cc(Nc2nccn3c(-c4c[nH]nc4C(F)(F)F)cnc23)ccc1C(=O)NCCCNC(=O)[C@@H]1CCCN1 [Example 634, (S)-N-(3-(2-ethyl-4-((3-(3-(trifluoromethyl)-1H-pyrazol-4-yl)imidazo[1,2-a]pyrazin-8-yl)amino)benzamido)propyl) pyrrolidine-2-carboxamide]	0.218
Cc1cc(Nc2nccn3c(-c4cn(CCF)nc4C(F)(F)F)cnc23)cc(F)c1C(=O)NCCOCCN [Example 61, N-[2-(2-aminoethoxy)ethyl]-2-fluoro-4-[[3-[1-(2-fluoroethyl)-3-(trifluoromethyl)pyrazol-4-yl]imidazo[1,2-a]pyrazin-8-yl]amino]-6-methylbenzamide]	0.232
CCc1cc(Nc2nccn3c(-c4c[nH]nc4C(F)(F)F)cnc23)ccc1C(=O)NCCNC(=O)N1CC[C@H](N)C1 [Example 576, (S)-3-amino-N-(2-(2-ethyl-4-((3-(3-(trifluoromethyl)-1H-pyrazol-4-yl)imidazo[1,2-a]pyrazin-8-yl)amino)benzamido)ethyl) pyrrolidine-1-carboxamide formate]	0.9
N#CCn1cc(-c2cnc3c(Nc4ccc(C(=O)N5CCN(C(=O)N[C@H]6C[C@@H](N)C6)CC5)c(Cl)c4)nccn23)c(C(F)(F)F)n1 [Example 584, N-((1s,3s)-3-aminocyclobutyl)-4-(2-chloro-4-((3-(1-(cyanomethyl)-3-(trifluoromethyl)-1H-pyrazol-4-yl)imidazo[1,2-a]pyrazin-8-yl)amino)benzoyl) piperazine-1-carboxamide formate]	0.257
CCc1cc(Nc2nccn3c(-c4cn(CCF)nc4C(F)(F)F)cnc23)ccc1C(=O)N1CCC(CN)CC1 [Example 62, [4-(aminomethyl)piperidin-1-yl]-[2-ethyl-4-[[3-[1-(2-fluoroethyl)-3-(trifluoromethyl)pyrazol-4-yl]imidazo[1,2-a]pyrazin-8-yl]amino]phenyl] methanone]	0.242
O=C(c1ccc(Nc2nccn3c(-c4c[nH]nc4C(F)(F)F)cnc23)cc1Cl)N1CC2(C1)CN(C(=O)[C@@H]1CCCN1)C2 [Example 688, (S)-(2-chloro-4-((3-(3-(trifluoromethyl)-1H-pyrazol-4-yl)imidazo[1,2-a]pyrazin-8-yl)amino)phenyl)(6-prolyl-2,6-diazaspiro[3.3]heptan-2-yl)methanone]	0.349
CCc1cc(Nc2nccn3c(-c4c[nH]nc4C(F)(F)F)cnc23)ccc1C(=O)NCCCNC(=O)[C@H](C)NC(=O)C(F)(F)F [Example 759, (S)-2-ethyl-N-(3-(2-(2,2,2-trifluoroacetamido)propanamido)propyl)-4-((3-(3-(trifluoromethyl)-1H-pyrazol-4-yl)imidazo[1,2-a]pyrazin-8-yl)amino) benzamide]	0.693
CCc1cc(Nc2nccn3c(-c4cn(CC(F)F)nc4C(F)(F)F)cnc23)ccc1C(=O)NCC(=O)N1CC[C@H](N)C1 [Example 711, N-[2-[(3S)-3-aminopyrrolidin-1-yl]-2-oxo-ethyl]-4-[[3-[1-(2,2-difluoroethyl)-3-(trifluoromethyl)pyrazol-4-yl]imidazo[1,2-a]pyrazin-8-yl]amino]-2-ethyl-benzamide]	0.409
CCc1cc(Nc2nccn3c(-c4c[nH]nc4C(F)(F)F)cnc23)ccc1C(=O)NCCCCCCN [Example 336, N-(6-aminohexyl)-2-ethyl-4-[[3-[3-(trifluoromethyl)-1H-pyrazol-4-yl]imidazo[1,2-a]pyrazin-8-yl]amino]benzamide hydrochloride]	0.152
O=C(c1ccc(Nc2nccn3c(-c4c[nH]nc4C(F)(F)F)cnc23)cc1F)N1CCNCC1 [Example 805, (2-fluoro-4-((3-(3-(trifluoromethyl)-1H-pyrazol-4-yl)imidazo[1,2-α]pyrazin-8-yl)amino)phenyl)(piperazin-1-yl)methanone hydrochloride]	0.88
C=CCn1cc(-c2cnc3c(Nc4ccc(C(=O)N5CCN(C(=O)C6CCNCC6)CC5)c(CC)c4)nccn23)c(C(F)(F)F)n1 [Example 64, [2-ethyl-4-[[3-[1-prop-2-enyl-3-(trifluoromethyl)pyrazol-4-yl]imidazo[1,2-a]pyrazin-8-yl]amino]phenyl]-[4-(piperidine-4-carbonyl)piperazin-1-yl]methanone]	0.306
N#CCn1cc(-c2cnc3c(Nc4ccc(C(=O)N5CC[C@H](O)C5)c(Cl)c4)nccn23)c(C(F)(F)F)n1 [Example 243, 2-[4-[8-[3-chloro-4-[(3S)-3-hydroxypyrrolidine-1-carbonyl]anilino]imidazo[1,2-a]pyrazin-3-yl]-3-(trifluoromethyl)pyrazol-1-yl]acetonitrile]	0.384
CCc1cc(Nc2nccn3c(-c4cn(CCF)nc4C(F)(F)F)cnc23)ccc1C(=O)NCCOC[C@@H](C)N [Example 150, N-[2-[(2R)-2-aminopropoxy]ethyl]-2-ethyl-4-[[3-[1-(2-fluoroethyl)-3-(trifluoromethyl)pyrazol-4-yl]imidazo[1,2-a]pyrazin-8-yl]amino]benzamide]	0.173
O=C(CNCCNC(=O)c1ccc(Nc2nccn3c(-c4cn(CC(F)F)nc4C(F)(F)F)cnc23)cc1Cl)NC1CNC1 [Example 821, N-(2-((2-(azetidin-3-ylamino)-2-oxoethyl)amino)ethyl)-2-chloro-4-(3-(1-(2,2-difluoroethyl)-3-(trifluoromethyl)-1H-pyrazol-4-yl)imidazo[1,2-a]pyrazin-8-yl)amino) benzamide formate]	0.16
